Structures can show the parent of a compound that is named as a salt.
Tested on: spontaneous climbing behaviour of mice
Experiment: Spontaneous climbing behaviour of mice (method of Martres et al.)
Format: in vivo
Conditions: 0.2mg/kg subcutaneous, climbs counted over a 10 minute period commencing 3 minutes after administration, percentage change from control group
Procedure: It is believed that this inhibitory effect is mediated by stimulation of presynaptic dopaminergic autoreceptors, i.e. receptors whose stimulation results in inhibition of dopamine synthesis and electrical activity of dopamine neurones. Spontaneous climbing behaviour was assessed by the method of M.P. Martres et al., Brain Research, 1977, 136, 319. This involves the monitoring of the frequency of climbing behaviour of mice in inverted food hoppers over a 10 minute period commencing 3 minutes after subcutaneous administration of compound. A climb is defined as the mouse having all four feet off the ground. Experiments are carried out with a minimum of 5 groups of 10 mice, one group acting as control.

Compound	% Inhibition of Spontaneous Climbing at 0.2mg/kg (hydrobromide, 0.2 mg/kg) [%]	% Inhibition of Spontaneous Climbing at 0.2mg/kg [%]
Oc1cccc(C2CCC3CCC2N3Cc2ccccc2)c1 (racemic) [Compound 14, (±)-(2-endo)-8-Benzyl-2-(3'-hydroxyphenyl)-8-azabicyclo(3.2.1)octane hydrobromide]	38	–
Oc1cccc(C2CCC3CCC2N3CCc2ccccc2)c1 (racemic) [Compound 20, 2-endo-8-phenethyl-2-(3'-hydroxyphenyl)-8-azabicyclo[3.2.1] octane]	–	12
CCCN1C2CCC(c3cccc(O)c3)C1CC2 (racemic) [Compound 16, 2-endo-8-n-propyl-2-(3'-hydroxyphenyl)-8-azabicyclo[3.2.7]octane]	–	49
Oc1cccc(C2CCC3CCC2N3Cc2ccccc2)c1 (racemic) [Compound 13, (±)-(2-Exo)-8-Benzyl-2-(3'-hydroxyphenyl)-8-azabicyclo(3.2.1)octane hydrobromide]	24	–
